Test results reported in patent US20090203731A1, “TREATMENT OF DEPRESSION AND OTHER AFFECTIVE DISORDERS” (H. Lundbeck A/S, priority 2003, published 2009).

What was measured:
Type in all cases: in vivo
[1] = system: rat chronic mild stress (CMS) model of depression; assay: rat chronic mild stress (CMS) model of depression, sucrose consumption; settings: male Wistar rats
From the text: The rat chronic mild stress (CMS) model of depression has a high degree of predictive validity for antidepressant activity (Willner, 1997, Psychopharmacol. 134, 319-329). Furthermore, the procedure is an appropriate model to study onset of antidepressant action in animals (C. Sánchez et al., 2003, Behavioural Pharmacology 14, 465-470). The principle of the model is based on the relation between stress and affective disorders. Rats exposed to chronic stress will show a reduced sensitivity to rewards (e.g. a palatable sucrose solution).
Male Wistar rats (Gorzkowska, Warsaw) were brought into the laboratory two months before the start of the experiment. The animals were singly housed with food and water freely available, and maintained on a 12-h light/dark cycle at a temperature of 22±2° C., except as described below.
The animals were first trained to consume a 1% sucrose solution; training consisted of eight 1 h baseline tests in which sucrose was presented, in the home cage, following 14 h food and water deprivation; intake was measured by weighing pre-weighed bottles containing the sucrose solution, at the end of the test. Subsequently, sucrose consumption was monitored, under similar conditions, throughout the whole experiment. […] Body weights were assessed a baseline and by the end of drug treatment.

[2] = system: 5-HTP-induced behaviour in mice; assay: mouse 5-HTP potentiation test (potentiation of 5-HTP-induced behaviour); settings: gaboxadol 2.5 mg/kg with escitalopram 0.5 to 0.025 mg/kg, s.c., 30 min before i.v. 5-HTP 100 mg/kg, male NMRI/BOM mice
From the text: (§1) In order to modulate the activity of systems responsible for antidepressant activity, we have characterized the interaction between gaboxadol and escitalopram (an SSRI) in a behavioral model of serotonin reuptake inhibition, i.e. the mouse 5-HTP potentiation test, and a model that is predictive of antidepressant activity, i.e. the mouse forced swim test (cf. C. Sánchez et al., 2003, Psychopharmacology 167, 353-362).
(§2) Male NMRI/BOM mice (18-25 g; Bomholtgaard, Denmark) were used. The mice were housed in plastic cages (35×30×12 cm), 10 animals in each, and habituated to the animal facilities for at least a week before test. The room temperature (21±2° C.), relative humidity (55±5%), and air exchange (16 times per h) were automatically controlled. The animals had free access to commercial food pellets and tap water before test.
The test procedure for studies in mice is described in detail by Hyttel et al., 1992, J. Neural. Transm. Gen. Sect. 88, 157-60. Briefly, 30 min after subcutaneous (s.c.) administration of test compound, mice were given intravenous (i.v.) 5-HTP (100 mg/kg). Thereafter the animals were evaluated in their home cage during a 15-min observation period with respect to stereotypy (lateral head movements), tremor, and hind limb abduction. One point was given for each symptom being present. A total of 8-16 mice were used per dose. Inhibition of forced swimming-induced immobility.

[3] = system: forced swimming-induced immobility in mice; assay: mouse forced swim test (inhibition of forced swimming-induced immobility); settings: male NMRI/BOM mice
From the text: as §1, §2
A mouse that is forced to swim in a spatially constrained container will exert a characteristic immobile posture. Pretreatment with an antidepressant will counteract this effect. The test was conducted as described in detail by Sánchez and Meier (Psychopharmacol. 129, 197-205, 1997). Briefly, a fully automated test system with 6 swim units (2000 ml glass jars filled with 1200 ml soiled water (23-25° C.) in which a mouse had been placed previously) was used. […] The accumulated duration of immobility was measured during the last 3 min. […]

Oc1noc2c1CCNC2 [gaboxadol, Gaboxadol]
effect in the rat chronic mild stress model at 2.5 mg/kg per day ([1]; 2.5 mg/kg per day, intraperitoneal): clear and significant effect
anti-depressant-like effect in the rat chronic mild stress model ([1]; twice daily intraperitoneal injections for five weeks): significant anti-depressant-like effect
potentiation of the acute effects of escitalopram in the 5-HTP potentiation test [2]: strongly potentiated the acute effects of escitalopram
activity by itself in the forced swim test ([3]; gaboxadol 2.5 mg/kg alone, 30 min before test): not active by itself
potentiation of the antidepressant-like effect of escitalopram in the forced swim test ([3]; gaboxadol 2.5 mg/kg with escitalopram 2.5 and 5 mg/kg): potentiated the antidepressant-like effect of escitalopram (2.5 and 5 mg/kg) significantly
